# Columns and labels:
# [1] = molecular target: T1, Serine-protein kinase ATM (Homo sapiens, UniProt Q13315); experiment: Inhibition of ATM (unknown origin) by FRET assay
# [2] = Thermodynamic solubility of compound in PBS at pH 7.4; assay type: physicochemical; settings: read-out: Therm_solubility
# [3] = molecular target: T1, Serine-protein kinase ATM; experiment: Inhibition of ATM in human A549 cells assessed as reduction in etoposide-stimulated KAP1 phosphorylation by In-Cell-Western assay; assay type: cell-based
# [4] = molecular target: DNA-dependent protein kinase catalytic subunit (Homo sapiens) (UniProt P78527); experiment: Inhibition of DNA-PK (unknown origin) assessed as residual activity at 1 uM relative to control
# [5] = molecular target: T2, Phosphatidylinositol 4,5-bisphosphate 3-kinase catalytic subunit delta isoform (Homo sapiens) (UniProt O00329); experiment: Inhibition of PI3Kdelta (unknown origin) assessed as residual activity at 1 uM relative to control
# T2 sequence (whole entry): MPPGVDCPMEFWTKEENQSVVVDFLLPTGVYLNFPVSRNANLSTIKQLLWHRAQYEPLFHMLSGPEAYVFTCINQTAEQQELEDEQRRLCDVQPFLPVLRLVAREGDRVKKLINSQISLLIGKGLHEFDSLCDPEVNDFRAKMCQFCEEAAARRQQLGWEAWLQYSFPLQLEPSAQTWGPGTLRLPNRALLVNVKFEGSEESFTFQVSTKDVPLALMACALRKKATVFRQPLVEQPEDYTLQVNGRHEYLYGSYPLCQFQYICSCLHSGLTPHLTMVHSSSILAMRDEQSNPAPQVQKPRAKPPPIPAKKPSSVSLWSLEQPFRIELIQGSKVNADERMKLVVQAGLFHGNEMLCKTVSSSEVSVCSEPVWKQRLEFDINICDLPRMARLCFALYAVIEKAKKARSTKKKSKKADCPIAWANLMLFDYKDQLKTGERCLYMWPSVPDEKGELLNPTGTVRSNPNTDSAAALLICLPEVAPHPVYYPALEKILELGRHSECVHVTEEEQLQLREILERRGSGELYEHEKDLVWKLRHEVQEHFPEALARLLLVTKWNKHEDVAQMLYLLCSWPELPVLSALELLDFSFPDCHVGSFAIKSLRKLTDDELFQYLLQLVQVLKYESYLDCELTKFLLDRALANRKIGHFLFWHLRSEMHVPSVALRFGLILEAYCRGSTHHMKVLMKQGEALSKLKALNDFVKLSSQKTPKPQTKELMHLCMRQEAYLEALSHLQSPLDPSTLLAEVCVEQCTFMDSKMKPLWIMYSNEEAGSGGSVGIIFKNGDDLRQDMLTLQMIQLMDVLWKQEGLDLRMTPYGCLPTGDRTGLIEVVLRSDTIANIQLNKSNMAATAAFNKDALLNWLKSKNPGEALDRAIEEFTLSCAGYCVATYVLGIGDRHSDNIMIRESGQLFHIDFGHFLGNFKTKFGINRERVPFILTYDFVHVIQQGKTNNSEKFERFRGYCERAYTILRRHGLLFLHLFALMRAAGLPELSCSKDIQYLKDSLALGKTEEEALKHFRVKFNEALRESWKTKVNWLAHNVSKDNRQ
# [6] = molecular target: Leucine-rich repeat serine/threonine-protein kinase 2 (Homo sapiens) (UniProt Q5S007); experiment: Inhibition of LRRK2 (unknown origin) assessed as residual activity at 1 uM relative to control
# [7] = molecular target: Serine/threonine-protein kinase mTOR (Homo sapiens) (UniProt P42345); experiment: Inhibition of mTOR (unknown origin) assessed as residual activity at 1 uM relative to control
# Homo sapiens = species: Homo sapiens; experiment: Selectivity ratio for inhibition of ATR (unknown origin) to inhibition of ATM (unknown origin)
# [8] = molecular target: Phosphatidylinositol 4,5-bisphosphate 3-kinase catalytic subunit alpha isoform (Homo sapiens) (UniProt P42336); experiment: Inhibition of PI3Kalpha (unknown origin) assessed as residual activity at 1 uM relative to control
# Sequence of Phosphatidylinositol 4,5-bisphosphate 3-kinase catalytic subunit alpha isoform (Homo sapiens) (P42336 whole entry, canonical isoform): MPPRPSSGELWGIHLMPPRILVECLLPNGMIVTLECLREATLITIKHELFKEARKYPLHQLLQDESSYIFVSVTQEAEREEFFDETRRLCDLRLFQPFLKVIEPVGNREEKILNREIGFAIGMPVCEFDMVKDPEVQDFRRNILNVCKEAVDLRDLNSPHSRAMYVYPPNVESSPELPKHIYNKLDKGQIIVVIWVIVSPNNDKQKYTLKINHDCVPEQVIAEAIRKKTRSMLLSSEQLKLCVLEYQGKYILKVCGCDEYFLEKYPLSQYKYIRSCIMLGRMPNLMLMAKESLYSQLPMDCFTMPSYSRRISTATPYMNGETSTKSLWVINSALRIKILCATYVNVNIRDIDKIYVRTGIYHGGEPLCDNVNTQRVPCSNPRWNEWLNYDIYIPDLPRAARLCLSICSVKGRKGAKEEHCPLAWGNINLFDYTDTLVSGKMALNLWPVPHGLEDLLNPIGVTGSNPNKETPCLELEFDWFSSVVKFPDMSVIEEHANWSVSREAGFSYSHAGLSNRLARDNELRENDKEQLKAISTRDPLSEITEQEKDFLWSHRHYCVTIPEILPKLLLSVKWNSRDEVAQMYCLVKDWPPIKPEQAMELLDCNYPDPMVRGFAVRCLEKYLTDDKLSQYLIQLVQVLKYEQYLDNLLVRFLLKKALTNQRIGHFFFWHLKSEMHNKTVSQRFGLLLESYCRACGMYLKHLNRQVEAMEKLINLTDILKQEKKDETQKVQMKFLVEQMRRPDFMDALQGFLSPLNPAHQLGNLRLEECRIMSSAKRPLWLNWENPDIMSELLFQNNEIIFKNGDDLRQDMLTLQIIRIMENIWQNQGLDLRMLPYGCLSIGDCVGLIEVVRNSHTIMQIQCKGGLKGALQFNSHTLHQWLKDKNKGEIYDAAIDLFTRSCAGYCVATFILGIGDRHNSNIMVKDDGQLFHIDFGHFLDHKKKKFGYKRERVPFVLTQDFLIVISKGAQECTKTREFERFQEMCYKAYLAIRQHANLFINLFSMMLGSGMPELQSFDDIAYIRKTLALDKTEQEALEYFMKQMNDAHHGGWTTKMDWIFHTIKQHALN
# [9] = Metabolic stability in mouse liver microsomes assessed as parent compound remaining after 120 mins
# [10] = molecular target: Phosphatidylinositol 4,5-bisphosphate 3-kinase catalytic subunit gamma isoform (Homo sapiens) (UniProt P48736); experiment: Inhibition of PI3Kgamma (unknown origin) assessed as residual activity at 1 uM relative to control
# [11] = molecular target: Phosphatidylinositol 4,5-bisphosphate 3-kinase catalytic subunit beta isoform (Homo sapiens) (UniProt P42338); experiment: Inhibition of PI3Kbeta (unknown origin) assessed as residual activity at 1 uM relative to control
# [12] = molecular target: Serine/threonine-protein kinase ATR (Homo sapiens) (UniProt Q13535); experiment: Inhibition of ATR (unknown origin) assessed as residual activity at 1 uM relative to control
# T1 sequence (Q13315 whole entry): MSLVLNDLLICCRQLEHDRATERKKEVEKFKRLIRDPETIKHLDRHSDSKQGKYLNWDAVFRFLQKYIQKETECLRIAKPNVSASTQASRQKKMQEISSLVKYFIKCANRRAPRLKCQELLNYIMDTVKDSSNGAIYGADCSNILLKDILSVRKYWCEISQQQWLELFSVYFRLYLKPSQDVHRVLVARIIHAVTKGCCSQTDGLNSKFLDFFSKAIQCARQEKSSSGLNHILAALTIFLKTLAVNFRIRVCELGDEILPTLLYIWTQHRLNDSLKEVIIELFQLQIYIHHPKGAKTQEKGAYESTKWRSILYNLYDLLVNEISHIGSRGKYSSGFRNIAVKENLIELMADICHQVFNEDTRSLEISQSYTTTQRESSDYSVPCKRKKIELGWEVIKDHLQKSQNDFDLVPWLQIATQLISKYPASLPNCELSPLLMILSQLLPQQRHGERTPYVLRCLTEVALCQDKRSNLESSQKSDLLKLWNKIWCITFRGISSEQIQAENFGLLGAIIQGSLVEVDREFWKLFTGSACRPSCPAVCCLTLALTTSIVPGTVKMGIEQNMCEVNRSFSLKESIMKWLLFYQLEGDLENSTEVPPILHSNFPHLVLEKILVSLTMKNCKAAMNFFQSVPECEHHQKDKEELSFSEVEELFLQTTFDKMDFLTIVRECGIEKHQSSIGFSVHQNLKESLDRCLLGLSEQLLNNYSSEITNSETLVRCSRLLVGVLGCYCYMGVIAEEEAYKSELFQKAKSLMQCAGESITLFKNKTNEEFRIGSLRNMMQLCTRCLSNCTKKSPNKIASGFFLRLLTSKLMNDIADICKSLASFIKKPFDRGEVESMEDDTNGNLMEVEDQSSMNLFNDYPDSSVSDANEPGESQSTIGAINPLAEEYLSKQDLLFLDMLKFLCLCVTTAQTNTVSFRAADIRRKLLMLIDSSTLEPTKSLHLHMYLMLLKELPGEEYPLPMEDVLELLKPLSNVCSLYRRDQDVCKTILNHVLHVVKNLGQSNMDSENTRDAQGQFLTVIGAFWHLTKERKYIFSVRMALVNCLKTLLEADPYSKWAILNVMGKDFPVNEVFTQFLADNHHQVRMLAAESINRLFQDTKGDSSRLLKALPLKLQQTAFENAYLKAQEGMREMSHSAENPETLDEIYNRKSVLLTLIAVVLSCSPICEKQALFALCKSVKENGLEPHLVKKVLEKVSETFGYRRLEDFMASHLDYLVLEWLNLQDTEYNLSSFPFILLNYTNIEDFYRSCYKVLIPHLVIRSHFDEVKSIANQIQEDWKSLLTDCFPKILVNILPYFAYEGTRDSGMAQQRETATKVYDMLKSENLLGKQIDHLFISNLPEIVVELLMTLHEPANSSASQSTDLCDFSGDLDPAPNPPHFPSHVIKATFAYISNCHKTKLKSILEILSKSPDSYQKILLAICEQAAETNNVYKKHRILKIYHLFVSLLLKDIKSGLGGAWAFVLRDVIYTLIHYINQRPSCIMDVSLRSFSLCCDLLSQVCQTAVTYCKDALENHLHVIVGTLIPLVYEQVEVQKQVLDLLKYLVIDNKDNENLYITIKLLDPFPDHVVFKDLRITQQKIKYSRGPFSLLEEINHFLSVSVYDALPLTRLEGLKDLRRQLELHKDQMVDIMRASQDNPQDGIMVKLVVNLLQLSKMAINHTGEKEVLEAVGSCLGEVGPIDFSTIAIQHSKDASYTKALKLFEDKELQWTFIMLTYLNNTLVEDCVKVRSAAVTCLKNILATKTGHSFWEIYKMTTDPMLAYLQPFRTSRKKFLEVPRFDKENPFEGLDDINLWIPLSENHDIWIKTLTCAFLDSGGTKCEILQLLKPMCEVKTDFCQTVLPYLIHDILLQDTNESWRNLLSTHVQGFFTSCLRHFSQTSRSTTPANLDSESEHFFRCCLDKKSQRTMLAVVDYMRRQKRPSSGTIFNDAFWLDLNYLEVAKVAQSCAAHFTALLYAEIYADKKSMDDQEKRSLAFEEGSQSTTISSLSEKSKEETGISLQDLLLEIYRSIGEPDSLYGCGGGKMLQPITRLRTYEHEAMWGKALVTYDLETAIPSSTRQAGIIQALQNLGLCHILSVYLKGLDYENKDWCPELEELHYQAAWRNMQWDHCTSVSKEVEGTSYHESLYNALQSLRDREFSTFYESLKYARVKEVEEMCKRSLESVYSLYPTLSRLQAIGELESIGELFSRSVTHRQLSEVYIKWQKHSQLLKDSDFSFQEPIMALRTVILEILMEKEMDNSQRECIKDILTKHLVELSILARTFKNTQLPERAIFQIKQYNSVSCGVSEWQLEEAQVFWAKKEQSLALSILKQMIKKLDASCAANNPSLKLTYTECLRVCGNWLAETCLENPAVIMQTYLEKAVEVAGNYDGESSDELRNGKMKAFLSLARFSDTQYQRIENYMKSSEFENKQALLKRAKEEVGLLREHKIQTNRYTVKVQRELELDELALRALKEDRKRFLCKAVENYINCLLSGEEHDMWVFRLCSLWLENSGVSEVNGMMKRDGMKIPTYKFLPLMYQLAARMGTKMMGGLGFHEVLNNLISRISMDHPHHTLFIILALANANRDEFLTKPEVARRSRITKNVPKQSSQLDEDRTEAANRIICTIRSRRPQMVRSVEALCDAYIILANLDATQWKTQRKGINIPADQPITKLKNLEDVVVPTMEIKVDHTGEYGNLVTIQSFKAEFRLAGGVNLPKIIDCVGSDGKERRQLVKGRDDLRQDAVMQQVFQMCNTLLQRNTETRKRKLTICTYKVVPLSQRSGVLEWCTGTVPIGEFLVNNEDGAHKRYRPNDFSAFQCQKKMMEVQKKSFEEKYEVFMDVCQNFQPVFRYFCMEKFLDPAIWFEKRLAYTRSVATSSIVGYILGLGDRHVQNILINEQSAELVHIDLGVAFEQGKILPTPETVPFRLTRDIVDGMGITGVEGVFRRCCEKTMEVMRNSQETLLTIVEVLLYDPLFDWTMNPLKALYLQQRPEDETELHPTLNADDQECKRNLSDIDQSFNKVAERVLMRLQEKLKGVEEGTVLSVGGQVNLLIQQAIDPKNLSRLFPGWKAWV
smiles,measurement,setting,value
COCCn1c(=O)n(C)c2cnc3ccc(-c4ccc(NC(=O)NC5CN(C)C5)cc4)cc3c21,IC50,[1],< 1 nM
CN(C)CCCOc1ccc(-c2ccc3ncc4c(c3c2)n(C2CCOCC2)c(=O)n4C)cn1,solubility thermodynamic,[2],2970 µM
COCCn1c(=O)n(C)c2cnc3ccc(-c4ccc(NC(=O)NCCN5CC(F)(F)C5)cc4)cc3c21,IC50,[1],< 1 nM
same,IC50,[3],3.31 nM
COCCn1c(=O)n(C)c2cnc3ccc(-c4ccc(NC(=O)N5CCN(C)CC5)c(F)c4F)cc3c21,IC50,[1],212 nM
COCCn1c(=O)n(C)c2cnc3ccc(-c4ccc(NC(=O)N5CCN(C)CC5)c(F)c4Cl)cc3c21,IC50,[1],885 nM
COCCn1c(=O)n(C)c2cnc3ccc(-c4ccc(NC(=O)NCCN(C)C)cc4F)cc3c21,IC50,[1],< 1 nM
same,IC50,[3],0.65 nM
COCCn1c(=O)n(C)c2cnc3ccc(-c4ccc(NC(=O)N5C[C@@H]6C[C@H]5CN6C)cc4)cc3c21,IC50,[1],25 nM
COCCn1c(=O)n(C)c2cnc3ccc(-c4ccc(NC(=O)NCCN5CCC5)cc4)cc3c21,IC50,[1],< 1 nM
same,IC50,[3],0.92 nM
COCCn1c(=O)n(C)c2cnc3ccc(-c4ccc(NC(=O)NC5CCCN(C)C5)cc4)cc3c21 (stereo not given),IC50,[1],< 1 nM
COCCn1c(=O)n(C)c2cnc3ccc(-c4ccc(NC(=O)NCCN(C)C)c(F)c4)cc3c21,Activity,[4],8%
same,IC50,[1],< 1 nM
same,Activity,[5],35%
same,Activity,[6],92%
same,IC50,[3],0.71 nM
same,Activity,[7],4%
same,Selectivity ratio,Homo sapiens,> 1000
same,Activity,[8],28%
same,remaining at 2 h,[9],78%
same,Activity,[10],80%
same,Activity,[11],87%
same,Activity,[12],104%
COCCn1c(=O)n(C)c2cnc3ccc(-c4ccc(NC(=O)N5CCN(C)CC5)cc4F)cc3c21,IC50,[1],101 nM
COCCn1c(=O)n(C)c2cnc3ccc(-c4ccc(NC(=O)NCCN(C)C)cc4)cc3c21,IC50,[1],< 1 nM
same,IC50,[3],1.7 nM
same,solubility thermodynamic,[2],1570 µM
COCCn1c(=O)n(C)c2cnc3ccc(-c4ccc(NC(=O)N5CCC(N)CC5)cc4)cc3c21,IC50,[1],16 nM
COCCn1c(=O)n(C)c2cnc3ccc(-c4ccc(NC(=O)NCCN(C)C)c(F)c4Cl)cc3c21,IC50,[1],32 nM
COCCn1c(=O)n(C)c2cnc3ccc(-c4ccc(NC(=O)N5CCC(N(C)C)CC5)cc4)cc3c21,IC50,[1],945 nM
COCCn1c(=O)n(C)c2cnc3ccc(-c4ccc(NC(=O)N5CCN(C)CC5)c(F)c4)cc3c21,IC50,[1],394 nM
CCN1CCN(C(=O)Nc2ccc(-c3ccc4ncc5c(c4c3)n(CCOC)c(=O)n5C)cc2)CC1,IC50,[1],159 nM
COCCn1c(=O)n(C)c2cnc3ccc(-c4ccc(NC(=O)N5CCN(C)CC5)c(C)c4F)cc3c21,IC50,[1],1580 nM
COCCn1c(=O)n(C)c2cnc3ccc(-c4ccc(NC(=O)N5CCN(C)CC5)cc4)cc3c21,IC50,[1],78 nM
COCCn1c(=O)n(C)c2cnc3ccc(-c4ccc(NC(=O)NCCN5CC(F)C5)cc4)cc3c21,Activity,[4],-4%
same,IC50,[1],< 1 nM
same,Activity,[5],23%
same,Activity,[6],87%
same,IC50,[3],0.32 nM
same,Activity,[7],-1%
same,Selectivity ratio,Homo sapiens,> 1000
same,Activity,[8],-11%
same,remaining at 2 h,[9],50%
same,Activity,[10],34%
same,Activity,[11],42%
same,Activity,[12],109%
COCCn1c(=O)n(C)c2cnc3ccc(-c4ccc(NC(=O)NC(C)CN(C)C)cc4)cc3c21 (stereo not given),IC50,[1],< 1 nM
COCCn1c(=O)n(C)c2cnc3ccc(-c4ccc(NC(=O)NC5CCNCC5)cc4)cc3c21,IC50,[1],< 1 nM
COCCn1c(=O)n(C)c2cnc3ccc(-c4ccc(NC(=O)NC5CCN(C)C5)cc4)cc3c21 (stereo not given),IC50,[1],< 1 nM
COCCn1c(=O)n(C)c2cnc3ccc(-c4ccc(NC(=O)NC5CCN(C(=O)OC(C)(C)C)CC5)cc4)cc3c21,IC50,[1],< 1 nM
CN(C)CCNC(=O)Nc1ccc(-c2ccc3ncc4c(c3c2)n(C2CCOCC2)c(=O)n4C)cc1,IC50,[1],< 1 nM
same,solubility thermodynamic,[2],39 µM
COCCn1c(=O)n(C)c2cnc3ccc(-c4ccc(NC(=O)N(C)CCN(C)C)cc4)cc3c21,IC50,[1],< 1 nM
same,IC50,[3],1.33 nM
COCCn1c(=O)n(C)c2cnc3ccc(-c4ccc(NC(=O)N5CCC(NC(=O)OC(C)(C)C)CC5)cc4)cc3c21,IC50,[1],2 nM
CN(C)CCNC(=O)Nc1ccc(-c2ccc3ncc4c(c3c2)n(C2CCOCC2)c(=O)n4C)cn1,IC50,[1],< 1 nM
same,solubility thermodynamic,[2],36 µM
COCCn1c(=O)n(C)c2cnc3ccc(-c4ccc(NC(=O)N5CCN(C(C)C)CC5)cc4)cc3c21,IC50,[1],158 nM
COCCn1c(=O)n(C)c2cnc3ccc(-c4ccc(NC(=O)NCCN(C)C)c(C)c4F)cc3c21,IC50,[1],37 nM

# Source: ChEMBL document CHEMBL5154812, “Development of novel urea-based ATM kinase inhibitors with subnanomolar cellular potency and high kinome selectivity” (Eur J Med Chem, 2022)
